Results published in patent publication US5210193A, “Piperazine derivatives” (American Cyanamid Company, priority 1990, dated 1993).
Values after ≈ are worked out from the molar mass of the structure shown. Where a name gives a salt, the structure may show the parent alone. Read-outs that look alike come from different tables or passages of the source. Blank lines part the entries; values can stand above or below the compound they belong to.

What was measured:
Assay in all cases: in vitro antibacterial MIC, agar plate dilution
Assay type in all cases: cell-based
[1] = system: Klebsiella pneumoniae MOR 84-24; settings: Klebsiella pneumoniae, MOR8424, 18 h, 35° C., read-out: MIC
Method in brief: (§1)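 Read-out is visible growth inhibition on Mueller-Hinton agar dilution plates incubated 18 hours at 35° C after inoculation of ~10^4 CFU (Steers device), with MIC reported in mcg/ml.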

[2] = system: Klebsiella pneumoniae IO 83-5; settings: Klebsiella pneumoniae, IO835, 18 h, 35° C., read-out: MIC
Method in brief: as §1

[3] = system: Enterobacter cloacae VGH 84-39; settings: Enterobacter cloacae, VGH8439, 18 h, 35° C., read-out: MIC
Method in brief: as §1

[4] = system: Staphylococcus aureus K 82-26; settings: 35° C.
Method in brief: as §1

[5] = system: Serratia marcescens IO 83-63; settings: IO8363, 18 hours, 35° C.
Method in brief: as §1

[6] = system: Pseudomonas aeruginosa CMC 83-20; settings: 35° C.
Method in brief: as §1

Escherichia coli LL 311 = settings: 35° C.
Method in brief: as §1

[7] = system: Streptococcus faecalis VGH 84-69; settings: Enterococcus faecalis, VGH8469, 18 h, 35° C., read-out: MIC
Method in brief: as §1

[8] = system: Escherichia coli CMC 84-11; settings: 18 hours, 35° C.
Method in brief: as §1

[9] = system: Morganella morganii MOR 84-45; settings: Morganella morganii, MOR8445, 18 h, 35° C., read-out: MIC
Method in brief: as §1

[10] = system: Proteus rettgeri IO 83-21; settings: Providencia rettgeri, IO8321, 18 h, 35° C., read-out: MIC
Method in brief: as §1

[11] = system: Morganella morganii CMC 84-37; settings: Morganella morganii, CMC8437, 18 h, 35° C., read-out: MIC
Method in brief: as §1

[12] = system: Enterobacter cloacae MOR 84-30; settings: Enterobacter cloacae, MOR8430, 18 h, 35° C., read-out: MIC
Method in brief: as §1

[13] = system: Pseudomonas aeruginosa LL-1244; settings: 35° C.
Method in brief: as §1

[14] = system: Staphylococcus aureus Smith; settings: 35° C.
Method in brief: as §1

[15] = system: Pseudomonas aeruginosa VGH 84-4; settings: 35° C.
Method in brief: as §1

[16] = system: Streptococcus faecalis CMC 83-120; settings: Enterococcus faecalis, CMC83120, 18 h, 35° C., read-out: MIC
Method in brief: as §1

[17] = system: Proteus rettgeri CMC 84-41; settings: 18 hours, 35° C.
Method in brief: as §1

[18] = system: Staphylococcus aureus VGH 84-47; settings: 35° C.
Method in brief: as §1

[19] = system: Pseudomonas aeruginosa VGH 84-3; settings: Pseudomonas aeruginosa, VGH843, 18 h, 35° C., read-out: MIC
Method in brief: as §1

[20] = system: Morganella morganii VHG 84-12; settings: Morganella morganii, VHG8412, 18 h, Morganella morganii VHG 84-12 (VGH 84-12 for Example 131), 35° C., read-out: MIC
Method in brief: as §1

[21] = system: Providencia stuarti CMC 83-3; settings: Providencia, CMC833, 18 h, 35° C., read-out: MIC
Method in brief: as §1

[22] = system: Pseudomonas aeruginosa K 84-16; settings: Pseudomonas aeruginosa, K8416, 18 h, 35° C., read-out: MIC
Method in brief: as §1

[23] = system: Serratia marcescens MOR 84-41; settings: Serratia marcescens, MOR8441, 18 h, 35° C., read-out: MIC
Method in brief: as §1

[24] = system: Serratia marcescens VGH 84-30; settings: 35° C.
Method in brief: as §1

[25] = system: Serratia marcescens CMC 83-74; settings: Serratia marcescens, CMC8374, 18 h, 35° C., read-out: MIC
Method in brief: as §1

[26] = system: Staphylococcus aureus ATTC 29213; settings: 35° C.
Method in brief: as §1

[27] = system: Staphylococcus aureus VGH 84-45; settings: 35° C.
Method in brief: as §1

[28] = system: Klebsiella pneumoniae CMC 84-31; settings: Klebsiella pneumoniae, CMC8431, 18 h, 35° C., read-out: MIC
Method in brief: as §1

Citrobacter div. K 82-24 = settings: 35° C.
Method in brief: as §1

[29] = system: Streptococcus faecalis VGH 84-65; settings: 35° C.
Method in brief: as §1

[30] = system: Morganella morganii CMC 84-38; settings: 35° C.
Method in brief: as §1

[31] = system: Escherichia coli CMC 84-50; settings: Escherichia coli, CMC8450, 18 h, 35° C., read-out: MIC
Method in brief: as §1

[32] = system: Enterobacter cloacae K 84-10; settings: 35° C.
Method in brief: as §1

[33] = system: Serratia marcescens K 84-18; settings: 18 hours, 35° C.
Method in brief: as §1

[34] = system: Streptococcus faecalis UCI 85-19; settings: 35° C.
Method in brief: as §1

[35] = system: Escherichia coli MOR 84-20; settings: Escherichia coli, MOR8420, 18 h, 35° C., read-out: MIC
Method in brief: as §1

[36] = system: Escherichia coli VGH 84-19; settings: Escherichia coli, VGH8419, 18 h, 35° C., read-out: MIC
Method in brief: as §1

[37] = system: Escherichia coli ATCC 25922; settings: 35° C.
Method in brief: as §1

[38] = system: Streptococcus faecalis UCI 85-30; settings: Enterococcus faecalis, UCI8530, 18 h, 35° C., read-out: MIC
Method in brief: as §1

[39] = system: Staphylococcus aureus CMC 83-131; settings: Staphylococcus aureus, CMC83131, 18 h, 35° C., read-out: MIC
Method in brief: as §1

[40] = Escherichia coli, ATCC25922, 18 h, read-out: MIC

MIC [1]: 0.25 µg/mL
MIC [2]: 0.25 µg/mL
MIC [3]: 0.12 µg/mL
MIC ([4]; Staphylococcus aureus, K8226, 18 h, read-out: MIC): 0.12 µg/mL
MIC [5]: 1 µg/mL
MIC ([6]; Pseudomonas aeruginosa, CMC8320, 18 h, read-out: MIC): 4 µg/mL
MIC (Escherichia coli LL 311; Escherichia coli, LL311, 18 h, read-out: MIC): 0.03 µg/mL
MIC [7]: 0.5 µg/mL
MIC ([8]; monohydrochloride): 0.03 µg/mL
MIC [9]: 0.12 µg/mL
MIC [10]: 0.5 µg/mL
MIC [11]: 0.06 µg/mL
MIC [12]: 1 µg/mL
MIC ([13]; Pseudomonas aeruginosa, LL1244, 18 h, read-out: MIC): 2 µg/mL
MIC ([14]; 18 hours, monohydrochloride): 0.03 µg/mL
MIC ([15]; 18 hours, monohydrochloride): 2 µg/mL
MIC [16]: 1 µg/mL
MIC ([17]; monohydrochloride): 0.12 µg/mL
MIC ([18]; Staphylococcus aureus, VGH8447, 18 h, read-out: MIC): 0.12 µg/mL
MIC [19]: 16 µg/mL
MIC [20]: 0.25 µg/mL
MIC [21]: 8 µg/mL
MIC [22]: 4 µg/mL
MIC [23]: 0.25 µg/mL
MIC ([24]; Serratia marcescens, VGH8430, 18 h, read-out: MIC): 4 µg/mL
MIC [25]: 8 µg/mL
MIC ([26]; 18 hours, monohydrochloride): 0.12 µg/mL
MIC ([26]; Staphylococcus aureus, ATTC29213, 18 h, read-out: MIC): 0.06 µg/mL
MIC ([27]; 18 hours, monohydrochloride): 0.03 µg/mL
MIC [28]: 0.12 µg/mL
MIC (Citrobacter div. K 82-24; Citrobacter, DIV.K8224, 18 h, read-out: MIC): 0.12 µg/mL
MIC ([29]; 18 hours, monohydrochloride): 0.5 µg/mL
MIC ([30]; Morganella morganii, CMC8438, 18 h, read-out: MIC): 0.12 µg/mL
MIC [31]: 0.12 µg/mL
MIC ([32]; 18 hours, monohydrochloride): 0.06 µg/mL
MIC ([33]; monohydrochloride): 0.25 µg/mL
MIC ([34]; Enterococcus faecalis, UCI8519, 18 h, read-out: MIC): 0.5 µg/mL
MIC [35]: 0.12 µg/mL
MIC [36]: 0.12 µg/mL
MIC ([37]; 18 hours, monohydrochloride): 0.12 µg/mL
MIC [37, 40]: 0.06 µg/mL
MIC [38]: 1 µg/mL
Compound: O=C(O)c1cn(C2CC2)c2cc(N3CCNC(c4ccsc4)C3)c(F)cc2c1=O (centres unmarked) [Example 98, 1-Cyclopropyl-6-fluoro-1,4-dihydro-4-oxo-7-[3-(3-thienyl)-1-piperazinyl]-3-quinolinecarboxylic acid, monohydrochloride]

MIC [1]: 0.03 µg/mL (≈ 0.0808 µM)
MIC [2]: 0.03 µg/mL (≈ 0.0808 µM)
MIC [3]: 0.015 µg/mL (≈ 0.0404 µM)
MIC ([4]; 18 hours): 0.25 µg/mL (≈ 0.673 µM)
MIC [5]: 0.25 µg/mL (≈ 0.673 µM)
MIC ([6]; 18 hours): 1 µg/mL (≈ 2.69 µM)
MIC (Escherichia coli LL 311; 18 hours): 0.03 µg/mL (≈ 0.0808 µM)
MIC [7]: 1 µg/mL (≈ 2.69 µM)
MIC [8]: > 0.015 µg/mL
MIC [9]: 0.008 µg/mL (≈ 0.0215 µM)
MIC [10]: 0.12 µg/mL (≈ 0.323 µM)
MIC [11]: 0.03 µg/mL (≈ 0.0808 µM)
MIC [12]: 0.25 µg/mL (≈ 0.673 µM)
MIC ([13]; 18 hours): 1 µg/mL (≈ 2.69 µM)
MIC ([14]; Staphylococcus aureus, 18 h, read-out: MIC): 0.06 µg/mL (≈ 0.162 µM)
MIC ([15]; Pseudomonas aeruginosa, VGH844, 18 h, read-out: MIC): 1 µg/mL (≈ 2.69 µM)
MIC [16]: 1 µg/mL (≈ 2.69 µM)
MIC [17]: 0.03 µg/mL (≈ 0.0808 µM)
MIC ([18]; 18 hours): 0.06 µg/mL (≈ 0.162 µM)
MIC [19]: 4 µg/mL (≈ 10.8 µM)
MIC [20]: 0.12 µg/mL (≈ 0.323 µM)
MIC [21]: 2 µg/mL (≈ 5.38 µM)
MIC [22]: 2 µg/mL (≈ 5.38 µM)
MIC [23]: 0.06 µg/mL (≈ 0.162 µM)
MIC ([24]; 18 hours): 1 µg/mL (≈ 2.69 µM)
MIC [25]: 4 µg/mL (≈ 10.8 µM)
MIC ([26]; 18 hours): 0.25 µg/mL (≈ 0.673 µM)
MIC ([27]; Staphylococcus aureus, VGH8445, 18 h, read-out: MIC): 0.06 µg/mL (≈ 0.162 µM)
MIC [28]: 0.015 µg/mL (≈ 0.0404 µM)
MIC (Citrobacter div. K 82-24; 18 hours): 0.008 µg/mL (≈ 0.0215 µM)
MIC [39]: 0.25 µg/mL (≈ 0.673 µM)
MIC ([29]; Enterococcus faecalis, VGH8465, 18 h, read-out: MIC): 0.5 µg/mL (≈ 1.35 µM)
MIC ([30]; 18 hours): 0.3 µg/mL (≈ 0.808 µM)
MIC [31]: 0.015 µg/mL (≈ 0.0404 µM)
MIC ([32]; Enterobacter cloacae, K8410, 18 h, read-out: MIC): 0.015 µg/mL (≈ 0.0404 µM)
MIC [33]: > 0.015 µg/mL
MIC ([34]; 18 hours): 0.5 µg/mL (≈ 1.35 µM)
MIC [35]: 0.008 µg/mL (≈ 0.0215 µM)
MIC [36]: 0.008 µg/mL (≈ 0.0215 µM)
MIC [37, 40]: 0.015 µg/mL (≈ 0.0404 µM)
MIC [38]: 2 µg/mL (≈ 5.38 µM)
Compound: O=C(O)c1cn(C2CC2)c2cc(N3CCNC(C4CC4)C3)c(F)cc2c1=O (centres unmarked) [Example 96, 7-(3-Cyclopropyl-1-piperazinyl) -1-cyclopropyl-6-fluoro-1,4-dihydro-4-oxo-3-quinolinecarboxylic acid]
